Results reported in ChEMBL document CHEMBL4387769 (Bioorg Med Chem, 2019).

Key:
[1] = molecular target: T1, 5-hydroxytryptamine receptor 7 (Homo sapiens, UniProt P34969); test: Binding affinity to 5HT7 (unknown origin)
[2] = molecular target: T1, 5-hydroxytryptamine receptor 7; test: Displacement of [3H]5-CT from human 5HT7 receptor expressed in COS7 cells incubated for 30 mins by liquid scintillation counting method; format: cell-based
D(2) dopamine receptor [3] = molecular target: D(2) dopamine receptor (Rattus norvegicus, UniProt P61169); test: Displacement of [3H]spiperone from dopamine D2 receptor in Sprague-Dawley rat striatal membranes incubated for 40 mins; set-up: species or system Striatum, Membrane
D(2) dopamine receptor (Rattus norvegicus, UniProt P61169), sequence (P61169 whole entry): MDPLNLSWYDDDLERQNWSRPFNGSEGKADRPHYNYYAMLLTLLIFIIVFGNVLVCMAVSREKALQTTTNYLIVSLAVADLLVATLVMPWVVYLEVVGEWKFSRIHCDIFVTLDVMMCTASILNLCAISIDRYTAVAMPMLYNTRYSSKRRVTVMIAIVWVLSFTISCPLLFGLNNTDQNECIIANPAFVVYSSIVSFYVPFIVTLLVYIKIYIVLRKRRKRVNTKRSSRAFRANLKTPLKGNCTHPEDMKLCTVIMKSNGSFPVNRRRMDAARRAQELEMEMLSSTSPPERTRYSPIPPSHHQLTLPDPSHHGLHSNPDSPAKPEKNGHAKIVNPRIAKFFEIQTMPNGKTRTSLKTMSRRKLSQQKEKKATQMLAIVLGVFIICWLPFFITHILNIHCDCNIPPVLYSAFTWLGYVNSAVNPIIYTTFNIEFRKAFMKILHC

[4] = molecular target: 5-hydroxytryptamine receptor 2A (Rattus norvegicus, UniProt P14842); test: Displacement of [3H]ketanserin from 5HT2A receptor in rat cortical membranes incubated for 15 mins by liquid scintillation spectrometry; format: cell membranes
5-hydroxytryptamine receptor 2A (Rattus norvegicus, UniProt P14842), sequence (P14842 whole entry): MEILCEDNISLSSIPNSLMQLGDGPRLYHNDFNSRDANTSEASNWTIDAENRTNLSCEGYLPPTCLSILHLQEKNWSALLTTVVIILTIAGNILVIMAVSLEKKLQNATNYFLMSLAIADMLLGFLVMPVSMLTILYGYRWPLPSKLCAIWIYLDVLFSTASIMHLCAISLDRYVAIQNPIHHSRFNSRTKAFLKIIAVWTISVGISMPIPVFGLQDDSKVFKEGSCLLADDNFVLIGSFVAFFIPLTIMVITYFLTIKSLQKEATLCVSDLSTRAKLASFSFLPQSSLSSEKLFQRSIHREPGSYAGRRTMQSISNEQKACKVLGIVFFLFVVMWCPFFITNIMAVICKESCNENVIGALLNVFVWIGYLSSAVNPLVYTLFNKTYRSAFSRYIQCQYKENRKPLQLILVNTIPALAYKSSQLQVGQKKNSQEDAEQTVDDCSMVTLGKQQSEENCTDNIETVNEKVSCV

D(2) dopamine receptor [5] = molecular target: D(2) dopamine receptor (Homo sapiens, UniProt P14416); test: Displacement of [3H]raclopride from human dopamine D2L receptor expressed in HEK293 cells incubated for 1 hr by microbeta plate reader method; format: cell-based
D(2) dopamine receptor (Homo sapiens, UniProt P14416), sequence (P14416 whole entry): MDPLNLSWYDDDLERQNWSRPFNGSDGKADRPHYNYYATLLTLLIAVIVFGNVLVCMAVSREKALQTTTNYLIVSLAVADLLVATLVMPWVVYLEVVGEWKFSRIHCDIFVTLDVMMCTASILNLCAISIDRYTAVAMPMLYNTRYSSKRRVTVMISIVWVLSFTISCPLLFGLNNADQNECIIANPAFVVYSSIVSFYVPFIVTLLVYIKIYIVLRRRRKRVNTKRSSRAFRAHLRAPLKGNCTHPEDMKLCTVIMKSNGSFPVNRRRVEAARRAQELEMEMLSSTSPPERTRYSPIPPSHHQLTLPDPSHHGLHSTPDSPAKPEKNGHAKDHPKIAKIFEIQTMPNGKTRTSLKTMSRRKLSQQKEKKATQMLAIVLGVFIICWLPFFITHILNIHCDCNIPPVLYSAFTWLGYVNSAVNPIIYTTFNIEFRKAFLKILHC

[6] = molecular target: 5-hydroxytryptamine receptor 6 (Homo sapiens, UniProt P50406); test: Displacement of [3H]LSD from human 5HT6 receptor expressed in HEK293 cell membranes after 1 hr by microbeta plate reader method
5-hydroxytryptamine receptor 6, sequence (P50406 whole entry): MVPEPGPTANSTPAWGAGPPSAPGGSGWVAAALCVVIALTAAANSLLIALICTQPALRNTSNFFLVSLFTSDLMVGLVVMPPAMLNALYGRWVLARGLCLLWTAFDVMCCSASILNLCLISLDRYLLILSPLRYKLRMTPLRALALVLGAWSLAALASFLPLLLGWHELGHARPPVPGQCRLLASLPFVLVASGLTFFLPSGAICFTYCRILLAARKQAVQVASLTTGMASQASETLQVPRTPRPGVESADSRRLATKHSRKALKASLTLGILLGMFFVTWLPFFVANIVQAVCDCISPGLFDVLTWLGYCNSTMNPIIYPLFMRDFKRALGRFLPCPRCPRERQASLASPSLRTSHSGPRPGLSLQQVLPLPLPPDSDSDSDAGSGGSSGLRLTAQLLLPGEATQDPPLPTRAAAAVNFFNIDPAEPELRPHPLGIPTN

[7] = molecular target: T2, 5-hydroxytryptamine receptor 1A (Homo sapiens, UniProt P08908); test: Displacement of [3H]-8-OH-DPAT from human 5HT1AR expressed in HEK293 cell membranes after 1 hr by microbeta plate reader method
T2 sequence (P08908 whole entry): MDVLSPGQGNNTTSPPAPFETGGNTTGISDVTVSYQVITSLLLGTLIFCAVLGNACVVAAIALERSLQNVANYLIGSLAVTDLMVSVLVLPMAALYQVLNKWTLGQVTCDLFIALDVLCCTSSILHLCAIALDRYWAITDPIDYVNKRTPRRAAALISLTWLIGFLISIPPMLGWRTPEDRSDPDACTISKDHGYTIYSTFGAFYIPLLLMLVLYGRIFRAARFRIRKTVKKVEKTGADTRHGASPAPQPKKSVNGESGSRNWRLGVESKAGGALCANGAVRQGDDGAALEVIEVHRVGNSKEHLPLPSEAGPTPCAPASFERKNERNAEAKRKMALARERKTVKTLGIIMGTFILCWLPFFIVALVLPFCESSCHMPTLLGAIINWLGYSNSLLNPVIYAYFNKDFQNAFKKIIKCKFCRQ

[8] = molecular target: 5-hydroxytryptamine receptor 2A (Homo sapiens, UniProt P28223); test: Displacement of [3H]ketanserin from human 5HT2AR expressed in CHO-K1 cell membranes after 1 hr by microbeta plate reader method
5-hydroxytryptamine receptor 2A (Homo sapiens, UniProt P28223), sequence (P28223 whole entry): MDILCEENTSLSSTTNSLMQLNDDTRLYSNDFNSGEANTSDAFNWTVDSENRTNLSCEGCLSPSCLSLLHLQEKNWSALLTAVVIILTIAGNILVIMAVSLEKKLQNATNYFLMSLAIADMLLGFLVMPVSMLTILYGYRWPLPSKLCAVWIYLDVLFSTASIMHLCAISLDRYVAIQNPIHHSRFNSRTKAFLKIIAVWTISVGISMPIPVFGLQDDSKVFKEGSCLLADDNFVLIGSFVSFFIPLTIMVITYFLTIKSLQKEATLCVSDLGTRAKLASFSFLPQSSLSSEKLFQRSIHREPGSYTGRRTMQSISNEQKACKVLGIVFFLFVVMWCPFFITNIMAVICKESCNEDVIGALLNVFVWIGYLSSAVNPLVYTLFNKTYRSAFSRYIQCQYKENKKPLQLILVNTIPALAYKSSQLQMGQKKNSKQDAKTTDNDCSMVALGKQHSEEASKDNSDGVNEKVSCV

[9] = molecular target: T1, 5-hydroxytryptamine receptor 7; test: Displacement of [3H]5-CT from human 5HT7B receptor expressed in HEK293 cell membranes after 1 hr by microbeta plate reader method

T1 sequence (P34969 whole entry): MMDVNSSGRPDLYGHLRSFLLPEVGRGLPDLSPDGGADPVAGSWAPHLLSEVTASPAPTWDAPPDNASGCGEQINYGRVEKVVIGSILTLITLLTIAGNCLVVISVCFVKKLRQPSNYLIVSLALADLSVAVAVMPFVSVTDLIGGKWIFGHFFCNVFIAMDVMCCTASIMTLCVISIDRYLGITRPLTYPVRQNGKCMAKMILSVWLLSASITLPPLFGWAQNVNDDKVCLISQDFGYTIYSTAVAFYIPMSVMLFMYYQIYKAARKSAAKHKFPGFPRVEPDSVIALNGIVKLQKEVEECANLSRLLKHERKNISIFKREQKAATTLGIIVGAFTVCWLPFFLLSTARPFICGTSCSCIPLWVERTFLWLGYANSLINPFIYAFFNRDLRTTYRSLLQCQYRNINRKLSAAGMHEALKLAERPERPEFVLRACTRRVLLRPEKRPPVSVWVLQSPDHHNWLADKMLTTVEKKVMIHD

Ki [1] [nM] | Ki [2] [nM] | Ki (D(2) dopamine receptor [3]) [nM] | Ki [4] [nM] | Ki (D(2) dopamine receptor [5]) [nM] | Ki [6] [nM] | Ki [7] [nM] | Ki [8] [nM] | Ki [9] [nM] | Structure (SMILES)
200 | – | – | – | – | – | – | – | – | COc1ccccc1N1CCN(CCCCCCN2c3cccc4cccc(c34)S2(=O)=O)CC1
200 | – | – | – | – | – | – | – | – | O=S1(=O)c2cccc3cccc(c23)N1CCCCCN1CCN(c2ccccc2)CC1
200 | – | – | – | – | – | – | – | – | COc1ccccc1N1CCN(CCCCN2c3cccc4cccc(c34)S2(=O)=O)CC1
> 1000 | – | – | – | – | – | – | – | – | O=S1(=O)c2cccc3cccc(c23)N1CCCCCCN1CCN(c2ccccc2)CC1
– | 12 | – | – | – | – | – | – | – | O=C1Nc2cccc3c2C1(CCCCN1CCN(c2ccccc2Cl)CC1)CCC3 (configuration not stated)
1000 | – | – | – | – | – | – | – | – | O=S1(=O)c2cccc3cccc(c23)N1CCCCN1CCN(c2ccccc2)CC1
– | – | > 1000 | 18 | – | – | – | – | – | O=S1(=O)c2cccc3cccc(c23)N1CCCN1CCN(c2cccc(F)c2)CC1
251 | – | – | – | – | – | – | – | – | COc1ccccc1N1CCN(CCCCCN2c3cccc4cccc(c34)S2(=O)=O)CC1
– | – | – | – | 336 | 433 | 197 | 147 | 280 | O=S1(=O)c2cccc3cccc(c23)N1CCCCCCN1CCN(c2ccc(Cl)cc2)CC1
– | – | – | – | 204 | 3190 | 688 | 1490 | 1830 | O=C1c2cccc3cccc(c23)N1CCCCCCN1CCN(c2ccc(Br)cc2)CC1
– | – | – | – | 496 | 2210 | 54 | 773 | 291 | O=C1c2cccc3cccc(c23)N1CCCCCCN1CCN(c2cccc(C(F)(F)F)c2)CC1
– | – | – | – | 304 | 374 | 132 | 596 | 167 | O=S1(=O)c2cccc3cccc(c23)N1CCCCCCN1CCN(c2cccc(C(F)(F)F)c2)CC1
– | – | – | – | 220 | 237 | 149 | 177 | 140 | O=S1(=O)c2cccc3cccc(c23)N1CCCCCCN1CCN(c2cccc(Cl)c2Cl)CC1
– | – | – | – | 121 | 624 | 46 | 322 | 432 | O=S1(=O)c2cccc3cccc(c23)N1CCCCCCN1CCN(c2cccc(Cl)c2)CC1
– | – | – | – | 142 | 507 | 106 | 548 | 286 | O=S1(=O)c2cccc3cccc(c23)N1CCCCCCN1CCN(c2ccccc2Cl)CC1
– | – | – | – | 927 | 937 | 989 | 1530 | 6000 | O=S1(=O)c2cccc3cccc(c23)N1CCCCCCN1CCN(c2ccc(C(F)(F)F)cc2)CC1

Ki [1] [nM] | Ki [2] [nM] | Ki (D(2) dopamine receptor [3]) [nM] | Ki [4] [nM] | Ki (D(2) dopamine receptor [5]) [nM] | Ki [6] [nM] | Ki [7] [nM] | Ki [8] [nM] | Ki [9] [nM] | Structure (SMILES)
– | – | – | – | 75 | 480 | 43 | 429 | 53 | O=C1c2cccc3cccc(c23)N1CCCCCCN1CCN(c2cccc(Cl)c2)CC1
– | – | – | – | 254 | 225 | 79 | 251 | 404 | O=S1(=O)c2cccc3cccc(c23)N1CCCCCCN1CCN(c2ccc(Cl)c(Cl)c2)CC1
– | – | – | – | 90 | 710 | 81 | 376 | 203 | O=S1(=O)c2cccc3cccc(c23)N1CCCCCCN1CCN(c2ccccc2F)CC1
– | – | – | – | 320 | 1730 | 64 | 524 | 420 | O=C1c2cccc3cccc(c23)N1CCCCCCN1CCN(c2ccccc2F)CC1
– | – | – | – | 945 | 2040 | 536 | 4350 | 49000 | O=C1c2cccc3cccc(c23)N1CCCCCCN1CCN(c2ccc(C(F)(F)F)cc2)CC1
– | – | – | – | 94 | 918 | 122 | 406 | 5100 | O=C1c2cccc3cccc(c23)N1CCCCCCN1CCN(c2cccc(Cl)c2Cl)CC1
– | – | – | – | 197 | 689 | 181 | 423 | 124 | O=C1c2cccc3cccc(c23)N1CCCCCCN1CCN(c2ccc(Cl)cc2)CC1
– | – | – | – | 58 | 1680 | 66 | 540 | 336 | O=C1c2cccc3cccc(c23)N1CCCCCCN1CCN(c2ccccc2Cl)CC1
– | – | – | – | 161 | 1130 | 599 | 1770 | 17800 | O=C1c2cccc3cccc(c23)N1CCCCCCN1CCN(c2ccccc2C(F)(F)F)CC1
– | – | – | – | 246 | 1860 | 161 | 493 | 166 | O=C1c2cccc3cccc(c23)N1CCCCCCN1CCN(c2ccc(Cl)c(Cl)c2)CC1
– | 20 | – | – | – | – | – | – | – | COc1ccc(N2CCN(CCCCC34CCCc5cccc(c53)NC4=O)CC2)cc1 (configuration not stated)
– | – | > 1000 | 5 | – | – | – | – | – | O=S1(=O)c2cccc3cccc(c23)N1CCCN1CCN(c2ccc(Cl)cc2)CC1
– | – | > 1000 | 7 | – | – | – | – | – | O=S1(=O)c2cccc3cccc(c23)N1CCCN1CCN(c2ccc(Br)cc2)CC1
– | – | > 1000 | 3 | – | – | – | – | – | O=S1(=O)c2cccc3cccc(c23)N1CCCN1CCN(c2ccccc2F)CC1
– | – | > 1000 | – | – | – | – | – | – | O=S1(=O)c2cccc3cccc(c23)N1CCCN1CCN(c2ccc(F)cc2)CC1 [FANANSERIN]
